Data from ChEMBL document CHEMBL1201862, “PubChem BioAssay data set” (2004).
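1) Cells in 96-well plates. 2) Compound, 48 h, 5 concentrations. 3) Linear interpolation between surrounding doses. 4) Unreached endpoint = highest concentration. The concentration for 50% growth inhibition is given as GI50.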 Activity calls are given as the source filed them. Rule as the data show it: active = GI50 up to about 1.1 µM and inactive = higher.

Assays:
Assay in all cases: inhibition of tumour cell growth, NCI panel, 48 h
786-0 = system: 786-0
A498 = system: A498
A549 = system: A549
ACHN = system: ACHN
BT-549 = system: BT-549
CAKI-1 = system: CAKI-1
CCRF-CEM = system: CCRF-CEM
COLO 205 = system: COLO 205
DU-145 = system: DU-145
EKVX = system: EKVX
HCC 2998 = system: HCC 2998
HCT-116 = system: HCT-116
HCT-15 = system: HCT-15
HL-60 = system: HL-60
HOP-62 = system: HOP-62
HOP-92 = system: HOP-92
HT-29 = system: HT-29
Hs-578T = system: Hs-578T
IGROV-1 = system: IGROV-1
K562 = system: K562
KM12 = system: KM12
LOX IMVI = system: LOX IMVI
M14 = system: M14
MCF7 = system: MCF7
MDA-MB-231 = system: MDA-MB-231
MDA-MB-435 = system: MDA-MB-435
MDA-N = system: MDA-N
MOLT-4 = system: MOLT-4
Malme-3M = system: Malme-3M
NCI-H226 = system: NCI-H226
NCI-H23 = system: NCI-H23
NCI-H460 = system: NCI-H460
NCI-H522 = system: NCI-H522
NCI/ADR-RES = system: NCI/ADR-RES
OVCAR-3 = system: OVCAR-3
OVCAR-5 = system: OVCAR-5
OVCAR-8 = system: OVCAR-8
PC-3 = system: PC-3
RPMI-8226 = system: RPMI-8226
RXF 393 = system: RXF 393
SF-268 = system: SF-268
SF-295 = system: SF-295
SF-539 = system: SF-539
SK-MEL-28 = system: SK-MEL-28
SK-MEL-2 = system: SK-MEL-2
SK-MEL-5 = system: SK-MEL-5
SK-OV-3 = system: SK-OV-3
SN12C = system: SN12C
SNB-19 = system: SNB-19
SNB-75 = system: SNB-75
SR = system: SR
SW-620 = system: SW-620
T47D = system: T47D
U-251 = system: U-251
UACC-257 = system: UACC-257
UACC-62 = system: UACC-62
UO-31 = system: UO-31

## CC(=O)OCC1OC(Nn2c(=O)[nH]c3ccccc3c2=O)C(OC(C)=O)C(OC(C)=O)C1OC(C)=O (configuration not stated)
786-0
  GI50: > 100 µM (inactive)
A498
  GI50: > 100 µM (inactive)
A549
  GI50: > 100 µM (inactive)
ACHN
  GI50: > 100 µM (inactive)
BT-549
  GI50: > 100 µM (inactive)
CAKI-1
  GI50: > 100 µM (inactive)
CCRF-CEM
  GI50: 40.2 µM (inactive)
COLO 205
  GI50: > 100 µM (inactive)
DU-145
  GI50: > 100 µM (inactive)
EKVX
  GI50: > 100 µM (inactive)
HCC 2998
  GI50: 15 µM (inactive)
HCT-116
  GI50: > 100 µM (inactive)
HCT-15
  GI50: > 100 µM
HL-60
  GI50: > 100 µM (inactive)
HOP-62
  GI50: > 100 µM (inactive)
HOP-92
  GI50: 89.1 µM (inactive)
HT-29
  GI50: > 100 µM (inactive)
Hs-578T
  GI50: > 100 µM (inactive)
IGROV-1
  GI50: > 100 µM (inactive)
K562
  GI50: > 100 µM (inactive)
KM12
  GI50: > 100 µM (inactive)
LOX IMVI
  GI50: > 100 µM (inactive)
M14
  GI50: > 100 µM (inactive)
MCF7
  GI50: > 100 µM (inactive)
MDA-MB-231
  GI50: > 100 µM (inactive)
MDA-MB-435
  GI50: > 100 µM (inactive)
MDA-N
  GI50: > 100 µM (inactive)
MOLT-4
  GI50: 97.7 µM (inactive)
Malme-3M
  GI50: > 100 µM (inactive)
NCI-H226
  GI50: > 100 µM (inactive)
NCI-H23
  GI50: > 100 µM (inactive)
NCI-H460
  GI50: 27.2 µM (inactive)
NCI-H522
  GI50: > 100 µM (inactive)
NCI/ADR-RES
  GI50: > 100 µM (inactive)
OVCAR-3
  GI50: > 100 µM (inactive)
OVCAR-5
  GI50: > 100 µM (inactive)
OVCAR-8
  GI50: > 100 µM (inactive)
PC-3
  GI50: > 100 µM (inactive)
RPMI-8226
  GI50: > 100 µM (inactive)
RXF 393
  GI50: > 100 µM (inactive)
SF-268
  GI50: > 100 µM (inactive)
SF-295
  GI50: > 100 µM (inactive)
SF-539
  GI50: > 100 µM (inactive)
SK-MEL-28
  GI50: > 100 µM (inactive)
SK-MEL-2
  GI50: > 100 µM (inactive)
SK-MEL-5
  GI50: > 100 µM (inactive)
SK-OV-3
  GI50: > 100 µM (inactive)
SN12C
  GI50: > 100 µM (inactive)
SNB-19
  GI50: > 100 µM (inactive)
SNB-75
  GI50: > 100 µM (inactive)
SR
  GI50: > 100 µM (inactive)
SW-620
  GI50: > 100 µM (inactive)
T47D
  GI50: 35.5 µM (inactive)
U-251
  GI50: > 100 µM (inactive)
UACC-257
  GI50: 35.3 µM (inactive)
UACC-62
  GI50: > 100 µM (inactive)
UO-31
  GI50: 70.3 µM (inactive)
